In the assay the test system is R. dominica mixed-age cultures. Put plainly: Fumigation in 125 litre plastic drums with 100 kg wheat, with/without perforated tubing (Example 6). Format: in vivo, Rhyzopertha dominica. Conditions: for Insect Survivors / mortality at 200 µg/mL: R. dominica, 200 mg/liter, 72 hours, 26 ± 2° C., 125 liter drum, 100 kg wheat; for mortality at 200 µg/mL: 72 h, read-out: % mortality based on survivors in untreated controls. The method, then:
In another set of experiments, fumigations were carried out in the plastic drums with 100 kg […] acetate (27 ml of liquid) was dispensed at one location, that is, on the top layer of the grain. In both sets of experiments, there were 3 replicates for control and fumigated batches.
Insect mortality in fumigated batches was determined by taking into consideration of survivors in respective controls as 100%.

Like-named read-outs stand apart in the source and are kept apart here.

By mortality is commonly meant the percentage killed. For the compound `C=CCOC(C)=O` [allyl acetate], the “Insect Survivors” value is 0 (with perforated tubing, test insect bag at bottom layer); 0 (with perforated tubing, test insect bag at middle layer); 0 (with perforated tubing, test insect bag at top layer); 0.67 (without perforated tubing, test insect bag at bottom layer); 0 (without perforated tubing, test insect bag at middle layer); 0 (without perforated tubing, test insect bag at top layer). Further, the mortality at 200 µg/mL was 100% (Rhyzopertha dominica, with perforated tubing, bottom layer); 100% (Rhyzopertha dominica, with perforated tubing, middle layer); 100% (Rhyzopertha dominica, with perforated tubing, top layer); 99.6% (Rhyzopertha dominica, without perforated tubing, bottom layer); 100% (Rhyzopertha dominica, without perforated tubing, middle layer); 100% (Rhyzopertha dominica, without perforated tubing, top layer). Also, the “dosage for 100% kill of all stages” value (Rhyzopertha dominica, all stages, preferred exposure period 72 hours) is 200 mg per litre of space.

These data come from patent US20040191287A1, “Fumigation process for stored food grains” (priority 2003, published 2004).
